Experimental data from patent US20250296953A1, “3,4-THIAZOLO-STEROIDS AND METHODS OF MAKING AND USING THE SAME” (Arkansas State University - Jonesboro, priority 2018, published 2025).
Read-outs that look alike come from different tables or passages of the source.

Tests used:
SF-295 = test: NCI 60 one dose screen; format: cell-based, human; conditions: one dose; CNS Cancer; SF-295
[1] = tested on: 60 different human tumor cell lines; conditions: five dose; for CC50: read-out: LC50
NCI-H522 (NSCLC) = test: NCI 60 one dose screen; format: cell-based, human; conditions: Non-small Cell Lung Cancer
glioblastoma (SF-295) = test: NCI 60 five dose screen; conditions: SF-295 (CNS Cancer), five dose
gliosarcoma (SF-539) = test: NCI 60 five dose screen; conditions: SF-539 (CNS Cancer), five dose
[2] = A549/ATCC (Non-small Cell Lung Cancer)
[3] = EKVX (Non-small Cell Lung Cancer)
[4] = HOP-62 (Non-small Cell Lung Cancer)
[5] = HOP-92 (Non-small Cell Lung Cancer)
[6] = MDA-MB-231/ATCC (Breast Cancer)
[7] = NCI-H23 (Non-small Cell Lung Cancer)
[8] = NCI-H226 (Non-small Cell Lung Cancer)
[9] = NCI-H322M (Non-small Cell Lung Cancer)
[10] = NCI-H460 (Non-small Cell Lung Cancer)
[11] = NCI-H522 (Non-small Cell Lung Cancer)

SMILES: C[C@]12CCc3nc(N)sc3C1=CC[C@@H]1[C@@H]2CC[C@]2(C)C(=NNC(N)=O)CC[C@@H]12 [IVb.1]
- Growth Percent (SF-295): 45.72%
- GI50 ([1]; 786-0 (Renal Cancer)): 1.39 µM
- TGI ([1]; 786-0 (Renal Cancer)): 2.82E−6
- GI50 ([1]; A498 (Renal Cancer)): 2.1 µM
- TGI ([1]; A498 (Renal Cancer)): 6.83E−6
- GI50 [1, 2]: 2.02 µM
- TGI [1, 2]: 3.89E−6
- GI50 ([1]; ACHN (Renal Cancer)): 1.8 µM
- TGI ([1]; ACHN (Renal Cancer)): 3.19E−6
- GI50 ([1]; BT-549 (Breast Cancer)): 2.84 µM
- TGI ([1]; BT-549 (Breast Cancer)): 8.91E−6
- GI50 ([1]; CAKI-1 (Renal Cancer)): 1.77 µM
- TGI ([1]; CAKI-1 (Renal Cancer)): 3.64E−6
- GI50 ([1]; CCRF-CEM (Leukemia)): 0.28 µM
- TGI ([1]; CCRF-CEM (Leukemia)): 1.62E−6
- GI50 ([1]; COLO 205 (Colon Cancer)): 2.06 µM
- TGI ([1]; COLO 205 (Colon Cancer)): 4.37E−6
- GI50 ([1]; DU-145 (Prostate Cancer)): 1.75 µM
- TGI ([1]; DU-145 (Prostate Cancer)): 3.41E−6
- GI50 [1, 3]: 1.8 µM
- TGI [1, 3]: 3.63E−6
- GI50 ([1]; HCC-2998 (Colon Cancer)): 1.74 µM
- TGI ([1]; HCC-2998 (Colon Cancer)): 3.28E−6
- GI50 ([1]; HCT-15 (Colon Cancer)): 1.46 µM
- TGI ([1]; HCT-15 (Colon Cancer)): 2.86E−6
- GI50 ([1]; HCT-116 (Colon Cancer)): 2.09 µM
- TGI ([1]; HCT-116 (Colon Cancer)): 4.35E−6
- GI50 ([1]; HL-60(TB) (Leukemia)): 2.73 µM
- TGI ([1]; HL-60(TB) (Leukemia)): 7.95E−6
- GI50 [1, 4]: 1.84 µM
- TGI [1, 4]: 3.47E−6
- GI50 [1, 5]: 1.51 µM
- TGI [1, 5]: 3.16E−6
- GI50 ([1]; HS 578T (Breast Cancer)): 2.08 µM
- TGI ([1]; HS 578T (Breast Cancer)): 5.15E−6
- GI50 ([1]; HT29 (Colon Cancer)): 1.88 µM
- TGI ([1]; HT29 (Colon Cancer)): 3.73E−6
- GI50 ([1]; IGROV1 (Ovarian Cancer)): 1.78 µM
- TGI ([1]; IGROV1 (Ovarian Cancer)): 3.43E−6
- GI50 ([1]; K-562 (Leukemia)): 1.81 µM
- TGI ([1]; K-562 (Leukemia)): 5.08E−6
- GI50 ([1]; KM12 (Colon Cancer)): 2.01 µM
- TGI ([1]; KM12 (Colon Cancer)): 4.01E−6
- GI50 ([1]; LOX IMVI (Melanoma)): 1.71 µM
- TGI ([1]; LOX IMVI (Melanoma)): 3.12E−6
- GI50 ([1]; M14 (Melanoma)): 1.94 µM
- TGI ([1]; M14 (Melanoma)): 3.77E−6
- GI50 ([1]; MALME-3M (Melanoma)): 1.76 µM
- TGI ([1]; MALME-3M (Melanoma)): 3.49E−6
- GI50 ([1]; MCF7 (Breast Cancer)): 1.52 µM
- TGI ([1]; MCF7 (Breast Cancer)): 3.14E−6
- GI50 [1, 6]: 1.7 µM
- TGI [1, 6]: 3.43E−6
- GI50 ([1]; MDA-MB-435 (Melanoma)): 1.33 µM
- TGI ([1]; MDA-MB-435 (Melanoma)): 2.70E−6
- GI50 ([1]; MDA-MB-468 (Breast Cancer)): 1.6 µM
- TGI ([1]; MDA-MB-468 (Breast Cancer)): 3.17E−6
- GI50 ([1]; MOLT-4 (Leukemia)): 2.64 µM
- TGI ([1]; MOLT-4 (Leukemia)): 7.02E−6
- GI50 [1, 7]: 1.78 µM
- TGI [1, 7]: 3.32E−6
- GI50 [1, 8]: 2.09 µM
- TGI [1, 8]: 4.91E6
- GI50 [1, 9]: 1.77 µM
- TGI [1, 9]: 3.55E−6
- GI50 [1, 10]: 1.92 µM
- TGI [1, 10]: 3.61E−6
- GI50 [1, 11]: 1.93 µM
- TGI [1, 11]: 4.06E−6
- GI50 ([1]; NCI/ADR-RES (Ovarian Cancer)): 1.94 µM
- TGI ([1]; NCI/ADR-RES (Ovarian Cancer)): 3.87E−6
- GI50 ([1]; OVCAR-3 (Ovarian Cancer)): 1.87 µM
- TGI ([1]; OVCAR-3 (Ovarian Cancer)): 3.44E−6
- GI50 ([1]; OVCAR-4 (Ovarian Cancer)): 1.74 µM
- TGI ([1]; OVCAR-4 (Ovarian Cancer)): 3.17E−6
- GI50 ([1]; OVCAR-5 (Ovarian Cancer)): 1.71 µM
- GI50 ([1]; OVCAR-8 (Ovarian Cancer)): 1.85 µM
- TGI ([1]; OVCAR-8 (Ovarian Cancer)): 3.63E−6
- GI50 ([1]; PC-3 (Prostate Cancer)): 1.25 µM
- TGI ([1]; PC-3 (Prostate Cancer)): 2.75E−6
- GI50 ([1]; RXF 393 (Renal Cancer)): 1.61 µM
- TGI ([1]; RXF 393 (Renal Cancer)): 3.23E−6
- GI50 ([1]; SF-268 (CNS Cancer)): 1.78 µM
- TGI ([1]; SF-268 (CNS Cancer)): 4.11E−6
- GI50 ([1]; SK-MEL-2 (Melanoma)): 1.98 µM
- TGI ([1]; SK-MEL-2 (Melanoma)): 4.58E−6
- GI50 ([1]; SK-MEL-5 (Melanoma)): 1.57 µM
- TGI ([1]; SK-MEL-5 (Melanoma)): 2.97E−6
- GI50 ([1]; SK-MEL-28 (Melanoma)): 1.63 µM
- TGI ([1]; SK-MEL-28 (Melanoma)): 3.10E−6
- GI50 ([1]; SK-OV-3 (Ovarian Cancer)): 6.21 µM
- TGI ([1]; SK-OV-3 (Ovarian Cancer)): 2.23E−6
- GI50 ([1]; SN12C (Renal Cancer)): 1.89 µM
- TGI ([1]; SN12C (Renal Cancer)): 3.45E−6
- GI50 ([1]; SNB-19 (CNS Cancer)): 1.87 µM
- TGI ([1]; SNB-19 (CNS Cancer)): 3.62E−6
- GI50 ([1]; SNB-75 (CNS Cancer)): 1.58 µM
- TGI ([1]; SNB-75 (CNS Cancer)): 3.50E−6
- GI50 ([1]; SW-620 (Colon Cancer)): 1.69 µM
- TGI ([1]; SW-620 (Colon Cancer)): 3.39E−6
- GI50 ([1]; T-47D (Breast Cancer)): 1.86 µM
- TGI ([1]; T-47D (Breast Cancer)): 3.80E−6
- GI50 ([1]; TK-10 (Renal Cancer)): 2.29 µM
- TGI ([1]; TK-10 (Renal Cancer)): 5.45E−6
- GI50 ([1]; U251 (CNS Cancer)): 1.77 µM
- TGI ([1]; U251 (CNS Cancer)): 3.22E−6
- GI50 ([1]; UACC-62 (Melanoma)): 1.63 µM
- TGI ([1]; UACC-62 (Melanoma)): 3.13E−6
- GI50 ([1]; UACC-257 (Melanoma)): 2.4 µM
- TGI ([1]; UACC-257 (Melanoma)): 5.83E−6
- GI50 ([1]; UO-31 (Renal Cancer)): 1.52 µM
- TGI ([1]; UO-31 (Renal Cancer)): 2.88E−6
- CC50 ([1]; 786-0 (Renal Cancer)): 5.96 µM
- CC50 ([1]; A498 (Renal Cancer)): 27.8 µM
- CC50 [1, 2]: 7.51 µM
- CC50 ([1]; ACHN (Renal Cancer)): 5.68 µM
- CC50 ([1]; BT-549 (Breast Cancer)): 88.5 µM
- CC50 ([1]; CAKI-1 (Renal Cancer)): 7.49 µM
- CC50 ([1]; CCRF-CEM (Leukemia)): > 100 µM
- CC50 ([1]; COLO 205 (Colon Cancer)): 9.25 µM
- CC50 ([1]; DU-145 (Prostate Cancer)): 6.66 µM
- CC50 [1, 3]: 7.32 µM
- CC50 ([1]; HCC-2998 (Colon Cancer)): 6.15 µM
- CC50 ([1]; HCT-15 (Colon Cancer)): 5.6 µM
- CC50 ([1]; HCT-116 (Colon Cancer)): 9.07 µM
- CC50 ([1]; HL-60(TB) (Leukemia)): > 100 µM
- CC50 [1, 4]: 6.54 µM
- CC50 [1, 5]: 6.6 µM
- CC50 ([1]; HT29 (Colon Cancer)): 7.41 µM
- CC50 ([1]; IGROV1 (Ovarian Cancer)): 6.63 µM
- CC50 ([1]; K-562 (Leukemia)): 40.4 µM
- CC50 ([1]; KM12 (Colon Cancer)): 6.79 µM
- CC50 ([1]; LOX IMVI (Melanoma)): 5.72 µM
- CC50 ([1]; M14 (Melanoma)): 7.31 µM
- CC50 ([1]; MALME-3M (Melanoma)): 6.9 µM
- CC50 ([1]; MCF7 (Breast Cancer)): 6.5 µM
- CC50 [1, 6]: 6.9 µM
- CC50 ([1]; MDA-MB-435 (Melanoma)): 5.49 µM
- CC50 ([1]; MDA-MB-468 (Breast Cancer)): 6.3 µM
- CC50 ([1]; MOLT-4 (Leukemia)): 93.3 µM
- CC50 [1, 7]: 6.21 µM
- CC50 [1, 8]: 17.4 µM
- CC50 [1, 10]: 6.79 µM
- CC50 [1, 11]: 8.55 µM
- CC50 ([1]; NCI/ADR-RES (Ovarian Cancer)): 7.71 µM
- CC50 ([1]; OVCAR-3 (Ovarian Cancer)): 6.34 µM
- CC50 ([1]; OVCAR-4 (Ovarian Cancer)): 5.78 µM
- CC50 ([1]; OVCAR-5 (Ovarian Cancer)): 5.96 µM
- CC50 ([1]; OVCAR-8 (Ovarian Cancer)): 7.11 µM
- CC50 ([1]; PC-3 (Prostate Cancer)): 6.01 µM
- CC50 ([1]; RXF 393 (Renal Cancer)): 6.48 µM
- CC50 ([1]; SF-268 (CNS Cancer)): 9.48 µM
- CC50 ([1]; SK-MEL-2 (Melanoma)): 12.4 µM
- CC50 ([1]; SK-MEL-5 (Melanoma)): 5.61 µM
- CC50 ([1]; SK-MEL-28 (Melanoma)): 5.88 µM
- CC50 ([1]; SK-OV-3 (Ovarian Cancer)): 66.7 µM
- CC50 ([1]; SN12C (Renal Cancer)): 6.33 µM
- CC50 ([1]; SNB-19 (CNS Cancer)): 7.01 µM
- CC50 ([1]; SNB-75 (CNS Cancer)): 7.76 µM
- CC50 ([1]; SW-620 (Colon Cancer)): 8.55 µM
- CC50 ([1]; T-47D (Breast Cancer)): 7.77 µM
- CC50 ([1]; TK-10 (Renal Cancer)): 19.3 µM
- CC50 ([1]; U251 (CNS Cancer)): 5.86 µM
- CC50 ([1]; UACC-62 (Melanoma)): 5.98 µM
- CC50 ([1]; UACC-257 (Melanoma)): 25.7 µM
- CC50 ([1]; UO-31 (Renal Cancer)): 5.44 µM
- Growth Percent (NCI-H522 (NSCLC)): −18.57%
- GI50 (glioblastoma (SF-295)): 1.61 µM
- TGI (glioblastoma (SF-295)): 3.03E−6
- CC50 (glioblastoma (SF-295); read-out: LC50): 5.71 µM
- GI50 (gliosarcoma (SF-539)): 2.05 µM
- TGI (gliosarcoma (SF-539)): 5.23E−6
- CC50 (gliosarcoma (SF-539); read-out: LC50): 19.8 µM
